{"source": "patent US20220296676A1", "about": "(priority 2020, published 2022)", "key": {"[1]": {"test_system": "human coronavirus (HCoV) 229E", "assay": "microbe, parasite or virus in culture", "conditions": "MRC5, 72 h"}, "in vitro [2]": {"assay": "in vitro", "conditions": "human"}, "in vitro [3]": {"assay": "in vitro", "conditions": "human", "remark": "listed apart in the source"}}}
{"smiles": "C/C=C/C[C@@H](C)[C@@H](O)[C@H]1C(=O)N[C@@H](CC)C(=O)N(C)[C@H](SCCN(C)C)C(=O)N(C)[C@@H](CC(C)(C)O)C(=O)N[C@@H](C(C)C)C(=O)N(C)[C@@H](CC(C)C)C(=O)N[C@@H](C)C(=O)N[C@H](C)C(=O)N(C)[C@@H](CC(C)C)C(=O)N(C)[C@@H](CC(C)C)C(=O)N(C)[C@@H](C(C)C)C(=O)N1C", "note": "[WS-635]", "values": [{"measurement": "EC50", "setting": "[1]", "value": 5.16, "unit": "µM"}, {"measurement": "CC50", "setting": "in vitro [2]", "value": "> 100", "unit": "µM"}, {"measurement": "CC50 at 3 days", "setting": "in vitro [3]", "value": 46.8, "unit": "µM"}]}
{"smiles": "CCC(CC)COC(=O)[C@H](C)N[P@](=O)(OC[C@H]1O[C@@](C#N)(c2ccc3c(N)ncnn23)[C@H](O)[C@@H]1O)Oc1ccccc1", "note": "[Remdesivir, reference compound]", "values": [{"measurement": "EC50", "setting": "[1]", "value": 0.03, "unit": "µM"}, {"measurement": "CC50", "setting": "in vitro [3]", "value": 49.2, "unit": "µM"}]}
